Experiment [1] has as its target T1, TYK2-JH2 (aa 575-869, in-house) protein (Homo sapiens, UniProt P29597).
T1 construct: TYK2-JH2 (aa 575-869, in-house) protein; made in house
Nature of the experiment: TYK2-JH2 biochemical assay (HTRF probe displacement). The conditions noted are these: Biochemical assay; read-out: TYK2-JH2 IC50. Type of experiment: binding. An outline of the steps: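 Recombinant TYK2-JH2 (0.2 nM) was pre-incubated 0.5 h at room temperature with compounds (10 doses, 5-fold dilution; 500× DMSO stocks from 500 uM) in 20 mM HEPES pH 7.5, 10 mM MgCl2, 0.005% BSA, 2 mM DTT, 0.015% Brij-35. Probe displacement was read by HTRF (ex337, em620/665 nm); IC50 from four-parameter logistic fit.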
Background: Time-resolved FRET reads energy transfer from a long-lived donor to a nearby acceptor.

Experiment [2] deals with JAK2, TYK2/p-STAT4 (Tyr693) activated by IL-12 in NK-92 cell line. Nature of the experiment: IL-12-JAK2, TYK2/p-STAT4 (Tyr693) inhibition IC50 cellular assay. Type of experiment: cell-based. The conditions noted are these: NK92, Cellular assay; read-out: pSTAT4/IL-12 IC50. A digest of the protocol: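 NK-92 cells were starved overnight without IL-2 and preincubated 1 h at 37° C with compound (8 doses, 10000–0.61 nM, 4-fold, 0.2% DMSO). They were then stimulated with IL-12 (40 ng/ml final) for 30 min. Lysate p-STAT4 (Tyr693) was read by AlphaLISA SureFire; IC50 from four-parameter logistic fit.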

A further experiment deals with pSTAT5/GM-CSF. Nature of the experiment: pSTAT5/GM-CSF cellular assay (JAK2 selectivity). Type of experiment: cell-based. The conditions noted are these: for Selectivity fold (TYK2/JAK2): pSTAT5/GM-CSF IC50 over pSTAT4/IL-12 IC50.

Where only a bound is given, the exact number is not on record here.

T1 sequence (P29597 575-869): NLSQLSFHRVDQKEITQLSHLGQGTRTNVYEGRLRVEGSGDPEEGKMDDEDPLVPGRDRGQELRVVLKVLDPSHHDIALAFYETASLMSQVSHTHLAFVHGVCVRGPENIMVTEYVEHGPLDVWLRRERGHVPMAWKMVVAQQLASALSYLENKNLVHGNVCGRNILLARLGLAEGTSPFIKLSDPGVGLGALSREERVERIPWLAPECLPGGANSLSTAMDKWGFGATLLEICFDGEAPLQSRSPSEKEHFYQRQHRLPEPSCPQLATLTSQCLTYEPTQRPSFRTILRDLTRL

Regarding `CC(=O)Nc1cc(Nc2cccc(S(C)(=O)=O)n2)c(-c2cc(N3CCOCC3)n(C)n2)cn1` [Example O1, N-(5-(1-methyl-5-morpholino-1H-pyrazol-3-yl)-4-((6-(methylsulfonyl)pyridin-2-yl)amino)pyridin-2-yl)acetamide], the IC50 in experiment [1] was 0.017 nM; in experiment [2], 0.414 nM; in the experiment with pSTAT5/GM-CSF, 1210 nM. For the same compound, the “Selectivity fold (TYK2/JAK2)” value with pSTAT5/GM-CSF stood at 2929 fold.

Take `COCCOc1cc(Nc2cc(NC(C)=O)ncc2-c2cc(N3CCOCC3)n(C)n2)nc(S(C)(=O)=O)c1` [Example O2, N-(4-((4-(2-methoxyethoxy)-6-(methylsulfonyl)pyridin-2-yl)amino)-5-(1-methyl-5-morpholino-1H-pyrazol-3-yl)pyridin-2-yl)acetamide]: the IC50 in experiment [1] is 0.016 nM; in experiment [2], 1.12 nM; in the experiment on pSTAT5/GM-CSF, 7010 nM. Besides, the “Selectivity fold (TYK2/JAK2)” value in the experiment on pSTAT5/GM-CSF is 6265 fold.

`CC(=O)Nc1cc(Nc2cc(OCC(C)O)cc(S(C)(=O)=O)n2)c(-c2cc(N3CCOCC3)n(C)n2)cn1` (stereo not drawn) [Example O3, N-(4-((4-(2-hydroxypropoxy)-6-(methylsulfonyl)pyridin-2-yl)amino)-5-(1-methyl-5-morpholino-1H-pyrazol-3-yl)pyridin-2-yl)acetamide]: the IC50 in experiment [1] was 0.031 nM; in experiment [2], 6.86 nM; in the experiment on pSTAT5/GM-CSF, 8300 nM. Moreover, the “Selectivity fold (TYK2/JAK2)” value in the experiment with pSTAT5/GM-CSF stood at 2109 fold.

For `CC(=O)Nc1cc(Nc2cc(OC(C)C)cc(S(C)(=O)=O)n2)c(-c2ccc3c(n2)OCCO3)cn1` [Example Q1, N-(5-(2,3-dihydro-[1,4]dioxino[2,3-b]pyridin-6-yl)-4-((4-isopropoxy-6-(methylsulfonyl)pyridine-2-yl)amino)pyridin-2-yl)acetamide], the values for the IC50 (in experiment [1]; in experiment [2]; with pSTAT5/GM-CSF) were 0.023 nM, 1.76 nM and over 10000 nM, respectively. Also, the “Selectivity fold (TYK2/JAK2)” value in the experiment with pSTAT5/GM-CSF is on record as over 5681 fold.

With `CC(=O)Nc1cc(Nc2cc(OC(C)C)cc(S(C)(=O)=O)n2)c(-c2ccc3c(n2)OCO3)cn1` [Example Q2, N-(5-([1,3]dioxolo[4,5-b]pyridin-5-yl)-4-((4-isopropoxy-6-(methylsulfonyl)pyridin-2-yl)amino)pyridin-2-yl)acetamide], the IC50 in experiment [1] was 0.021 nM; in experiment [2], 1.7 nM; in the experiment on pSTAT5/GM-CSF, over 10000 nM. Also, the “Selectivity fold (TYK2/JAK2)” value in the experiment with pSTAT5/GM-CSF was over 5882 fold.

As for `CC(=O)Nc1cc(Nc2cc(C)cc(S(C)(=O)=O)n2)c(-c2ccc3c(n2)OCCO3)cn1` [Example Q3, N-(5-(2,3-dihydro-[1,4]dioxino[2,3-b]pyridin-6-yl)-4-((4-methyl-6-(methylsulfonyl)pyridin-2-yl)amino)pyridin-2-yl)acetamide], the IC50 in experiment [1] was 0.023 nM; in experiment [2] it was 1.14 nM; with pSTAT5/GM-CSF, over 10000 nM. The “Selectivity fold (TYK2/JAK2)” value in the experiment with pSTAT5/GM-CSF is given as over 8771 fold.

Consider `CC(=O)Nc1cc(Nc2cc(OC(C)C)cc(S(C)(=O)=O)n2)c(-c2cc3c(cn2)NCCO3)cn1` [Example Q4, N-(5-(3,4-dihydro-2H-pyrido[4,3-b][1,4]oxazin-7-yl)-4-((4-isopropoxy-6-(methylsulfonyl)pyridin-yl)amino)pyridin-2-yl)acetamide], for which the IC50 in experiment [1] is 0.037 nM; in experiment [2], 1.1 nM; in the experiment with pSTAT5/GM-CSF, over 10000 nM. The “Selectivity fold (TYK2/JAK2)” value in the experiment on pSTAT5/GM-CSF was over 9090 fold.

With `CC(=O)Nc1cc(Nc2cc(OC(C)C)cc(S(C)(=O)=O)n2)c(-c2cc3n(n2)CCOC3)cn1` [Example Q6, N-(5-(6,7-dihydro-4H-pyrazolo[5,1-c][1,4]oxazin-2-yl)-4-((4-isopropoxy-6-(methylsulfonyl)pyridin-2-yl)amino)pyridin-2-yl)acetamide], the IC50 in experiment [1] is 0.028 nM; in experiment [2] it was 0.45 nM; in the experiment with pSTAT5/GM-CSF, over 10000 nM. Moreover, the “Selectivity fold (TYK2/JAK2)” value in the experiment with pSTAT5/GM-CSF was over 22222 fold.

In the case of `CC(=O)Nc1cc(Nc2cc(C)cc(S(C)(=O)=O)n2)c(-c2cc3c(cn2)OCCO3)cn1` [Example Q18, N-(5-(2,3-dihydro-[1,4]dioxino[2,3-c]pyridin-7-yl)-4-((4-methyl-6-(methylsulfonyl)pyridin-2-yl)amino)pyridin-2-yl)acetamide], the IC50 in experiment [1] is 0.023 nM; in experiment [2] it was 0.91 nM; in the experiment with pSTAT5/GM-CSF it was over 10000 nM. The “Selectivity fold (TYK2/JAK2)” value with pSTAT5/GM-CSF is over 10989 fold.

Consider `COCCOc1cc(Nc2cc(NC(C)=O)ncc2-c2cc3c(cn2)OCCO3)nc(S(C)(=O)=O)c1` [Example Q19, N-(5-(2,3-dihydro-[1,4]dioxino[2,3-c]pyridin-7-yl)-4-((4-(2-methoxyethoxy)-6-(methylsulfonyl)pyridin-2-yl)amino)pyridin-2-yl)acetamide], for which the IC50 in experiment [1] is 0.025 nM; in experiment [2], 3.02 nM; with pSTAT5/GM-CSF, over 10000 nM. Further, the “Selectivity fold (TYK2/JAK2)” value in the experiment on pSTAT5/GM-CSF is reported as over 3311 fold.

Regarding `CC(=O)Nc1cc(Nc2cc(C)cc(S(C)(=O)=O)n2)c(-c2cc3n(n2)CCOC3)cn1` [Example Q20, N-(5-(6,7-dihydro-4H-pyrazolo[5,1-c][1,4]oxazin-2-yl)-4-((4-methyl-6-(methylsulfonyl)pyridin-2-yl)amino)pyridin-2-yl)acetamide], the IC50 in experiment [1] came out at 0.022 nM; in experiment [2], 0.16 nM; in the experiment on pSTAT5/GM-CSF, 1770 nM. Moreover, in the experiment on pSTAT5/GM-CSF, the “Selectivity fold (TYK2/JAK2)” value amounted to 11043 fold.

On to `CC(=O)Nc1cc(Nc2cc(C)cc(S(C)(=O)=O)n2)c(-c2ccc3c(n2)OCC(C)(C)O3)cn1` [Example Q21, N-(5-(2,2-dimethyl-2,3-dihydro-[1,4]dioxino[2,3-b]pyridin-6-yl)-4-((4-methyl-6-(methylsulfonyl)pyridin-2-yl)amino)pyridin-2-yl)acetamide], for which the values for the IC50 (in experiment [1]; in experiment [2]; with pSTAT5/GM-CSF) were 0.037 nM, 0.411 nM and 1570 nM, respectively. Besides, the “Selectivity fold (TYK2/JAK2)” value in the experiment with pSTAT5/GM-CSF was 3824 fold.

For the compound `CC(=O)Nc1cc(Nc2cc(N3CCOCC3)cc(S(C)(=O)=O)n2)c(-c2ccc3c(n2)OCC(C)(C)O3)cn1` [Example Q22, N-(5-(2,2-dimethyl-2,3-dihydro-[1,4]dioxino[2,3-b]pyridin-6-yl)-4-((6-(methylsulfonyl)-4-morpholinopyridin-2-yl)amino)pyridin-2-yl)acetamide], the IC50 in experiment [1] is 0.025 nM; in experiment [2], 0.584 nM; in the experiment with pSTAT5/GM-CSF, 3960 nM. The “Selectivity fold (TYK2/JAK2)” value in the experiment with pSTAT5/GM-CSF was found to be 6779 fold.

For `CC(=O)Nc1cc(Nc2cc(C3CCOCC3)cc(S(C)(=O)=O)n2)c(-c2ccc3c(n2)OCC(C)(C)O3)cn1` [Example Q23, N-(5-(2,2-dimethyl-2,3-dihydro-[1,4]dioxino[2,3-b]pyridin-6-yl)-4-((6-(methylsulfonyl)-4-(tetrahydro-2H-pyran-4-yl)pyridin-2-yl)amino)pyridin-2-yl)acetamide], the IC50 is 0.028 nM in experiment [1], 0.605 nM in experiment [2] and 8100 nM in the experiment with pSTAT5/GM-CSF. Further, the “Selectivity fold (TYK2/JAK2)” value in the experiment with pSTAT5/GM-CSF is given as 13390 fold.

Consider `[2H]C([2H])([2H])Oc1cc(Nc2cc(NC(C)=O)ncc2-c2ccc3c(n2)OCC(C)(C)O3)nc(S(C)(=O)=O)c1` [Example Q24, N-(5-(2,2-dimethyl-2,3-dihydro-[1,4]dioxino[2,3-b]pyridin-6-yl)-4-((4-(methoxy-d3)-6-(methylsulfonyl)pyridin-2-yl)amino)pyridin-2-yl)acetamide], for which the IC50 came out at 0.033 nM in experiment [1], 0.559 nM in experiment [2] and 620 nM in the experiment with pSTAT5/GM-CSF. In addition, the “Selectivity fold (TYK2/JAK2)” value with pSTAT5/GM-CSF turned out to be 1109 fold.

On to `COc1cc(S(C)(=O)=O)nc(Nc2cc(NC(C)=O)ncc2-c2ccc3c(n2)OCC(C)(C)O3)c1OC` [Example Q26, N-(4-((3,4-dimethoxy-6-(methylsulfonyl)pyridin-2-yl)amino)-5-(2,2-dimethyl-2,3-dihydro-[1,4]dioxino[2,3-b]pyridin-6-yl)pyridin-2-yl)acetamide], for which the IC50 was 0.032 nM in experiment [1], 1.53 nM in experiment [2] and 700 nM with pSTAT5/GM-CSF. Besides, the “Selectivity fold (TYK2/JAK2)” value in the experiment on pSTAT5/GM-CSF was found to be 457 fold.

With `CC(=O)Nc1cc(Nc2cncc(S(C)(=O)=O)n2)c(-c2ccc3c(n2)OC(C)(C)CO3)cn1` [Example Q28, N-(5-(3,3-dimethyl-2,3-dihydro-[1,4]dioxino[2,3-b]pyridine-6-yl)-4-((6-(methylsulfonyl)pyrazin-2-yl)amino)pyridine-2-yl)acetamide], the IC50 in experiment [1] was 0.026 nM; in experiment [2] it was 0.329 nM; in the experiment with pSTAT5/GM-CSF, over 10000 nM. Further, the “Selectivity fold (TYK2/JAK2)” value in the experiment with pSTAT5/GM-CSF is given as over 30395 fold.

Take `CC(=O)Nc1cc(Nc2cc(N3CCOC[C@@H]3C)cc(S(C)(=O)=O)n2)c(-c2ccc3c(n2)OCC(C)(C)O3)cn1` [Example Q35, (S)—N-(5-(2,2-dimethyl-2,3-dihydro-[1,4]dioxino[2,3-b]pyridin-6-yl)-4-((4-(3-methyl-morpholino)-6-(methylsulfonyl)pyridin-2-yl)amino)-pyridin-2-yl)acetamide]: the IC50 in experiment [1] was 0.02 nM; in experiment [2] it was 0.679 nM; with pSTAT5/GM-CSF, 1810 nM. In addition, in the experiment with pSTAT5/GM-CSF, the “Selectivity fold (TYK2/JAK2)” value amounted to 2665 fold.

The values are drawn from patent US20240043435A1, “TYK-2 INHIBITOR” (BEIGENE, LTD., priority 2020, published 2024).
